Values joined by “and” are separate entries in the source; they are usually repeats but may differ in a detail not shown here. Equal entries are not always repeated.
Experiments:
Assay in all cases: Caliper, Mobility shift assay off-chip
[1] = molecular target: MKNK1 (human) (UniProt Q9BUB5)
[2] = molecular target: PRKD3 (human) (UniProt O94806)
[3] = molecular target: PDK4 (human) (UniProt Q16654)
[4] = molecular target: BLK (human) (UniProt P51451)
[5] = molecular target: MAPKAPK5 (human) (UniProt Q8IW41)
[6] = molecular target: MAPK9 (human) (UniProt P45984)
[7] = molecular target: NEK6 (human) (UniProt Q9HC98)
[8] = molecular target: TEC (human) (UniProt P42680)
[9] = molecular target: SPHK2 (human) (UniProt Q9NRA0)
[10] = molecular target: GSG2 (human) (UniProt Q8TF76)
Chain of GSG2 (human) (Q8TF76 whole entry, looked up): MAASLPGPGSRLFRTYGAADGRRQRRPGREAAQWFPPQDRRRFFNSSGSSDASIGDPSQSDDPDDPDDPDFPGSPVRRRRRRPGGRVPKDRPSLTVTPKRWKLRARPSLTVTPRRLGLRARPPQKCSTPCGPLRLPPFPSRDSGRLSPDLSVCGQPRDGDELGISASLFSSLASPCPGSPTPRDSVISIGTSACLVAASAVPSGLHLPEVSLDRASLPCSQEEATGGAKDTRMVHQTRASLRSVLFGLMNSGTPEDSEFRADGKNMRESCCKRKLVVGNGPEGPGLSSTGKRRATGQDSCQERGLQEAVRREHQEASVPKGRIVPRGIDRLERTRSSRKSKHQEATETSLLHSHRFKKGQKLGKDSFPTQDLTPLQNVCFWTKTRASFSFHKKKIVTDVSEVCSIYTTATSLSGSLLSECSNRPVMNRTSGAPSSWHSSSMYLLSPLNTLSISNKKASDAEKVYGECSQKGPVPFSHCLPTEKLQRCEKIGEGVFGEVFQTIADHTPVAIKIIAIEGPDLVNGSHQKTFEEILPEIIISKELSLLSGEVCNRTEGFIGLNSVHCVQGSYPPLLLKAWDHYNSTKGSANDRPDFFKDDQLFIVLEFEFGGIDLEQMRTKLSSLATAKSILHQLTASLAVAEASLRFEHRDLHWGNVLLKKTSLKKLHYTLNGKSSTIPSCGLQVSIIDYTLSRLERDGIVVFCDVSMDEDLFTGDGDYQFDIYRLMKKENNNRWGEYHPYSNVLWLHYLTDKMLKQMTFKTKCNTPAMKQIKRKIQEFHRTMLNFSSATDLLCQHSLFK

[11] = molecular target: MAPK8 (human) (UniProt P45983)
[12] = molecular target: STK38L (human) (UniProt Q9Y2H1)
[13] = molecular target: EPHA5 (human) (UniProt P54756)
[14] = molecular target: PRKX (human) (UniProt P51817)
[15] = molecular target: YES1 (human) (UniProt P07947)
[16] = molecular target: NTRK2 (human) (UniProt Q16620)
[17] = molecular target: MAPK12 (human) (UniProt P53778)
Chain of MAPK12 (human) (P53778 whole entry, looked up): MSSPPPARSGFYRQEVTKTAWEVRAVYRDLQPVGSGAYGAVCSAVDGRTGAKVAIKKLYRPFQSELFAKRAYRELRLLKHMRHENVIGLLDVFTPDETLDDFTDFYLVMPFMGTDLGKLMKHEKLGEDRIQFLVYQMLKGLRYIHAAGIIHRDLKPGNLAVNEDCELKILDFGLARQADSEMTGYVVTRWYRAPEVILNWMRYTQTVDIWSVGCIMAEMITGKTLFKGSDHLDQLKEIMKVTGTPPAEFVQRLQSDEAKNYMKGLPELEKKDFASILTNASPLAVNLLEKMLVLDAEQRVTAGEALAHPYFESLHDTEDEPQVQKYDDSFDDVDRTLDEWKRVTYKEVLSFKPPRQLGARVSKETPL

[18] = molecular target: MARK3 (human) (UniProt P27448)
Chain of MARK3 (human) (P27448 whole entry, looked up): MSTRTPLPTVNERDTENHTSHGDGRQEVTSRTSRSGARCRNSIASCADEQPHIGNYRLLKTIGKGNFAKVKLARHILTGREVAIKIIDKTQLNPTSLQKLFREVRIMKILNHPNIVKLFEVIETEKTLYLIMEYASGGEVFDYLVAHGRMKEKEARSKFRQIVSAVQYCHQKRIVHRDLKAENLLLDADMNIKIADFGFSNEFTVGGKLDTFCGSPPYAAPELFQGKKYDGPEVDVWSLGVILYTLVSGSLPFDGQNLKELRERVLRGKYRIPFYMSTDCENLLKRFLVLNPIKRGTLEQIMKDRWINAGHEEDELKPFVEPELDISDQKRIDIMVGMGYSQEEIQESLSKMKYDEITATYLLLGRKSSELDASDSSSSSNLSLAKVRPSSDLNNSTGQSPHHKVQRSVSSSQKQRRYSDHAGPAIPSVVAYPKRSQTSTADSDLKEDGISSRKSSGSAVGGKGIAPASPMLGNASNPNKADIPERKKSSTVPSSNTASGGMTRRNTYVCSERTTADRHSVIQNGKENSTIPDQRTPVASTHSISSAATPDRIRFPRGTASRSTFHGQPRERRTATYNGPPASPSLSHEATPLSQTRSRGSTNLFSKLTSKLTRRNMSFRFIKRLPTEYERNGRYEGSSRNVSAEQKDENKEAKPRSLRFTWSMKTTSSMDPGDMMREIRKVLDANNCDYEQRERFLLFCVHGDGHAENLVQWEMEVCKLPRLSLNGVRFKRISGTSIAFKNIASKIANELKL

[19] = molecular target: SGK3 (human) (UniProt Q96BR1)
[20] = molecular target: HIPK4 (human) (UniProt Q8NE63)
[21] = molecular target: CDC42BPA (human) (UniProt Q5VT25)
Chain of CDC42BPA (human) (Q5VT25 whole entry, looked up): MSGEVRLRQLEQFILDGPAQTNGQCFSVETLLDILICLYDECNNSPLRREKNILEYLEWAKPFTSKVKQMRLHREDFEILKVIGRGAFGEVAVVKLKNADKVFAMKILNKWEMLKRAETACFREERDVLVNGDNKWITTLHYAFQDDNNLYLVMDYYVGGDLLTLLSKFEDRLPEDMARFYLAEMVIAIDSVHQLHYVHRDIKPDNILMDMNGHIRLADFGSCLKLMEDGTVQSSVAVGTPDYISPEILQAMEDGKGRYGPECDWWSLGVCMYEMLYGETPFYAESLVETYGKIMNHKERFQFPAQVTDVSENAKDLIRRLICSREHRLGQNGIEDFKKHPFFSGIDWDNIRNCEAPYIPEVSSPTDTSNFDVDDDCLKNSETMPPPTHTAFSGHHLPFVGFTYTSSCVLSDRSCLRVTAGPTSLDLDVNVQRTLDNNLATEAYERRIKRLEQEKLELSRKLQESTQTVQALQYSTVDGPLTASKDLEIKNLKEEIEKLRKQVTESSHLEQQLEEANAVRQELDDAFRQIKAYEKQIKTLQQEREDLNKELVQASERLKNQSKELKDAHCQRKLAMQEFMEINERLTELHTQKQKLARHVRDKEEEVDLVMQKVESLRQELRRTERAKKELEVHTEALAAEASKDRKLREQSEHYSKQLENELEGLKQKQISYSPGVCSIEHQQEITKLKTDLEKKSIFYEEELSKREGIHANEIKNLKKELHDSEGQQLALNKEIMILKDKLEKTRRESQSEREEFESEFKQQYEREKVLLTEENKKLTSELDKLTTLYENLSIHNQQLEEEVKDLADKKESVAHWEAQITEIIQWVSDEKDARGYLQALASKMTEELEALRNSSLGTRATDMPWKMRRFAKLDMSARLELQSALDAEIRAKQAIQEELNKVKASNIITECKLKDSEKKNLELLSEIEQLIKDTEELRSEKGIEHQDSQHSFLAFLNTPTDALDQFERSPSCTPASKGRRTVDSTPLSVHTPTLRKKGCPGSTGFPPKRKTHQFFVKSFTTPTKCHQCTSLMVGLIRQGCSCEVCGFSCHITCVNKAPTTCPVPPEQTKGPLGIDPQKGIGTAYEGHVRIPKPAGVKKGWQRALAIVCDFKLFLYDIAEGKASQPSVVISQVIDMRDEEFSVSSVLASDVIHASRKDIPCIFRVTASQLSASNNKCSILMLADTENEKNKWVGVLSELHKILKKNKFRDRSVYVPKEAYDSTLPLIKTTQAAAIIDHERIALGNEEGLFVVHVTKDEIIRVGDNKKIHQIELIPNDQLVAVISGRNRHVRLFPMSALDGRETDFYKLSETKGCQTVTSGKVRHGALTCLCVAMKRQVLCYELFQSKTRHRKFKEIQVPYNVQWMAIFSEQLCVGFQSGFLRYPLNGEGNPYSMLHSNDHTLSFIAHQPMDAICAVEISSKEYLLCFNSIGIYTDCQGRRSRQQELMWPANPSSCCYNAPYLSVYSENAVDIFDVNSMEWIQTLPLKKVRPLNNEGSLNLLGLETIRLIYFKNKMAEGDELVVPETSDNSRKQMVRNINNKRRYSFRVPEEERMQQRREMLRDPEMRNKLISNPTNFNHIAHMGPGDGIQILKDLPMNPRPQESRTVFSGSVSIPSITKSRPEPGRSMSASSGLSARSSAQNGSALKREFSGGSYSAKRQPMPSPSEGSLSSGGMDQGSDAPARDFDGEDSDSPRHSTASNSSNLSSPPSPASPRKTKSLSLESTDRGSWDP

[22] = molecular target: TSSK3 (human) (UniProt Q96PN8)
[23] = molecular target: FGFR4 (human) (UniProt P22455)
[24] = molecular target: PTK2B (human) (UniProt Q14289)
[25] = molecular target: PRKCB1 (human) (UniProt P05771)
[26] = molecular target: DYRK3 (human) (UniProt O43781)
[27] = molecular target: BTK (human) (UniProt Q06187)
Chain of BTK (human) (Q06187 whole entry, looked up): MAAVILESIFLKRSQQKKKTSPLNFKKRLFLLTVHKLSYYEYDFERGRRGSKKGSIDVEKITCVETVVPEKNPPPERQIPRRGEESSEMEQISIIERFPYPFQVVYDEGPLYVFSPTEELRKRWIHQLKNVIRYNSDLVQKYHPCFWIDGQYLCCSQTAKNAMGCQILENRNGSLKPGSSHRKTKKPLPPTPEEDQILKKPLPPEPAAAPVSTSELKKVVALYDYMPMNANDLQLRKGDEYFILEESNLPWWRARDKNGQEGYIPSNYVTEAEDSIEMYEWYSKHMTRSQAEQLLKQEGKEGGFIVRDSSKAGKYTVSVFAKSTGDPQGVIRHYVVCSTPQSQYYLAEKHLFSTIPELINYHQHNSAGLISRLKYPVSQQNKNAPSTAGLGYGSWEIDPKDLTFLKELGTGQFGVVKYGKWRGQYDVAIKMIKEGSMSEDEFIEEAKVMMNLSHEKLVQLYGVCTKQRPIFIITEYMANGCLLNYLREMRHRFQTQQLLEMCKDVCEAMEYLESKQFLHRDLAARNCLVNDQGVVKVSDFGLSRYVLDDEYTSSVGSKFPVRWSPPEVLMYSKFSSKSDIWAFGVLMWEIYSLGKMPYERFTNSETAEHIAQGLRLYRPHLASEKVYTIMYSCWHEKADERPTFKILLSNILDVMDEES

[28] = molecular target: CSNK2A2 (human) (UniProt P19784)
[29] = molecular target: MAPK7 (human) (UniProt Q13164)
[30] = molecular target: PTK6 (human) (UniProt Q13882)
[31] = molecular target: EPHB1 (human) (UniProt P54762)
[32] = molecular target: PRKCA (human) (UniProt P17252)
[33] = molecular target: HIPK2 (human) (UniProt Q9H2X6)
[34] = molecular target: FGFR2 (human) (UniProt P21802)

CNC(=O)c1cc(Oc2ccc(NC(=O)Nc3ccc(Cl)c(C(F)(F)F)c3)cc2)ccn1
inhibition ([1]; compound 0.02 µM): -1.3%
inhibition ([1]; compound 0.2 µM): 6.4%
inhibition ([2]; compound 0.02 µM): -0.7%
inhibition ([2]; compound 0.2 µM): -5.1%
inhibition ([3]; compound 0.02 µM): 1.9%
inhibition ([3]; compound 0.2 µM): 3.4%
inhibition ([4]; compound 0.02 µM): 1%
inhibition ([4]; compound 0.2 µM): 6.4%
inhibition ([5]; compound 0.02 µM): -7.4%
inhibition ([5]; compound 0.2 µM): 1.4%
inhibition ([6]; compound 0.02 µM): -7.7%
inhibition ([6]; compound 0.2 µM): 0.5%
inhibition ([7]; compound 0.02 µM): -5%
inhibition ([7]; compound 0.2 µM): -6.1%
inhibition ([8]; compound 0.02 µM): -6.3%
inhibition ([8]; compound 0.2 µM): 9.4%
inhibition ([9]; compound 0.02 µM): -6%
inhibition ([9]; compound 0.2 µM): 7.1%
inhibition ([10]; compound 0.02 µM): -3%
inhibition ([10]; compound 0.2 µM): -1.8%
inhibition ([11]; compound 0.02 µM): -2.3%
inhibition ([11]; compound 0.2 µM): -2.1%
inhibition ([12]; compound 0.02 µM): -3.6%
inhibition ([12]; compound 0.2 µM): 4.2%
inhibition ([13]; compound 0.02 µM): 6.1%
inhibition ([13]; compound 0.2 µM): 38.8%
inhibition ([14]; compound 0.02 µM): -7%
inhibition ([14]; compound 0.2 µM): 0.2%
inhibition ([15]; compound 0.02 µM): -1.9%
inhibition ([15]; compound 0.2 µM): 17.7%
inhibition ([16]; compound 0.02 µM): 3.2%
inhibition ([16]; compound 0.2 µM): 37.4%
inhibition ([17]; compound 0.02 µM): -5.9%
inhibition ([17]; compound 0.2 µM): -0.3%
inhibition ([18]; compound 0.02 µM): -5.5%
inhibition ([18]; compound 0.2 µM): 5.7%
inhibition ([19]; compound 0.02 µM): 0.8%
inhibition ([19]; compound 0.2 µM): 10.7%
inhibition ([20]; compound 0.02 µM): 84%
inhibition ([20]; compound 0.2 µM): 98.4%
inhibition ([21]; compound 0.02 µM): -0.8%
inhibition ([21]; compound 0.2 µM): 8.1%
inhibition ([22]; compound 0.02 µM): 2.7%
inhibition ([22]; compound 0.2 µM): 8.3%
inhibition ([23]; compound 0.02 µM): -7.4%
inhibition ([23]; compound 0.2 µM): 8.8%
inhibition ([24]; compound 0.02 µM): -2.8%
inhibition ([24]; compound 0.2 µM): -2.7%
inhibition ([25]; compound 0.02 µM): -0.2% and -0.6%
inhibition ([25]; compound 0.2 µM): 22% and 17.2%
inhibition ([26]; compound 0.02 µM): -5.8%
inhibition ([26]; compound 0.2 µM): 2.1%
inhibition ([27]; compound 0.02 µM): -0.7%
inhibition ([27]; compound 0.2 µM): 14.6%
inhibition ([28]; compound 0.02 µM): -3.5%
inhibition ([28]; compound 0.2 µM): 0.9%
inhibition ([29]; compound 0.02 µM): -9.1%
inhibition ([29]; compound 0.2 µM): -8.8%
inhibition ([30]; compound 0.02 µM): -0.9%
inhibition ([30]; compound 0.2 µM): -0.8%
inhibition ([31]; compound 0.02 µM): -1.8%
inhibition ([31]; compound 0.2 µM): 8.5%
inhibition ([32]; compound 0.02 µM): 1.2%
inhibition ([32]; compound 0.2 µM): 12.2%

Cc1ccc(Nc2nccc(N(C)c3ccc4c(C)n(C)nc4c3)n2)cc1S(N)(=O)=O
inhibition ([1]; compound 0.02 µM): 6.1%
inhibition ([1]; compound 0.2 µM): 3.1%
inhibition ([2]; compound 0.02 µM): -1.6%
inhibition ([2]; compound 0.2 µM): 1.3%
inhibition ([3]; compound 0.02 µM): -0.5%
inhibition ([3]; compound 0.2 µM): 0.8%
inhibition ([4]; compound 0.02 µM): 7.7%
inhibition ([4]; compound 0.2 µM): 22.7%
inhibition ([33]; compound 0.02 µM): 1.4%
inhibition ([33]; compound 0.2 µM): 3.3%
inhibition ([5]; compound 0.02 µM): 3.2%
inhibition ([5]; compound 0.2 µM): 4.8%
inhibition ([7]; compound 0.02 µM): -4.8%
inhibition ([7]; compound 0.2 µM): -1.2%
inhibition ([8]; compound 0.02 µM): 4.8%
inhibition ([8]; compound 0.2 µM): 19.7%
inhibition ([9]; compound 0.02 µM): 4.3%
inhibition ([9]; compound 0.2 µM): -6.2%
inhibition ([10]; compound 0.02 µM): -1.1%
inhibition ([10]; compound 0.2 µM): 4.3%
inhibition ([12]; compound 0.02 µM): -1.5%
inhibition ([12]; compound 0.2 µM): 6.6%
inhibition ([13]; compound 0.02 µM): -2.7%
inhibition ([13]; compound 0.2 µM): 4.7%
inhibition ([14]; compound 0.02 µM): -0.6%
inhibition ([14]; compound 0.2 µM): 0.8%
inhibition ([15]; compound 0.02 µM): 13.3%
inhibition ([15]; compound 0.2 µM): 44.3%
inhibition ([16]; compound 0.02 µM): 5.5%
inhibition ([16]; compound 0.2 µM): 14.7%
inhibition ([17]; compound 0.02 µM): -6.3%
inhibition ([17]; compound 0.2 µM): -2.7%
inhibition ([18]; compound 0.02 µM): 1.7%
inhibition ([18]; compound 0.2 µM): -3.6%
inhibition ([19]; compound 0.02 µM): -0.2%
inhibition ([19]; compound 0.2 µM): -2.7%
inhibition ([34]; compound 0.02 µM): 29%
inhibition ([34]; compound 0.2 µM): 82.6%
inhibition ([20]; compound 0.02 µM): 6.8%
inhibition ([20]; compound 0.2 µM): 12.3%
inhibition ([21]; compound 0.02 µM): 13.3%
inhibition ([21]; compound 0.2 µM): 11%
inhibition ([22]; compound 0.02 µM): 2.2%
inhibition ([22]; compound 0.2 µM): 6.7%
inhibition ([23]; compound 0.02 µM): 0.7%
inhibition ([23]; compound 0.2 µM): 29.7%
inhibition ([24]; compound 0.02 µM): -0.4%
inhibition ([24]; compound 0.2 µM): 9.7%
inhibition ([25]; compound 0.02 µM): 3% and 5.4%
inhibition ([25]; compound 0.2 µM): 0.8% and 5.1%
inhibition ([26]; compound 0.02 µM): -2.2%
inhibition ([26]; compound 0.2 µM): -1.4%
inhibition ([27]; compound 0.02 µM): 2.4%
inhibition ([27]; compound 0.2 µM): 3.1%
inhibition ([28]; compound 0.02 µM): -2.8%
inhibition ([28]; compound 0.2 µM): -1.4%
inhibition ([29]; compound 0.02 µM): -7.8%
inhibition ([29]; compound 0.2 µM): -7.6%
inhibition ([30]; compound 0.02 µM): 2.5%
inhibition ([30]; compound 0.2 µM): 26.2%
inhibition ([31]; compound 0.02 µM): -1%
inhibition ([31]; compound 0.2 µM): -1.6%
inhibition ([32]; compound 0.02 µM): -0.8%
inhibition ([32]; compound 0.2 µM): -1%
